Values of other authors, collected in patent US4745233A, “Derivatives of 1,1,2,2-tetramethyl-1,2-bis-(2-fluoro-4-hydroxyphenyl)-ethane” (Asta-Werke Aktiengesellschaft, priority 1985, dated 1988).

Key:
[1] = test system: DMBA-induced mammary carcinomas; settings: Sprague Dawley rats; known compound
oestrogen receptor = molecular target: T1, oestrogen receptor (Bos taurus, UniProt P49884); settings: known compound, literature
T1 sequence (P49884 1-596): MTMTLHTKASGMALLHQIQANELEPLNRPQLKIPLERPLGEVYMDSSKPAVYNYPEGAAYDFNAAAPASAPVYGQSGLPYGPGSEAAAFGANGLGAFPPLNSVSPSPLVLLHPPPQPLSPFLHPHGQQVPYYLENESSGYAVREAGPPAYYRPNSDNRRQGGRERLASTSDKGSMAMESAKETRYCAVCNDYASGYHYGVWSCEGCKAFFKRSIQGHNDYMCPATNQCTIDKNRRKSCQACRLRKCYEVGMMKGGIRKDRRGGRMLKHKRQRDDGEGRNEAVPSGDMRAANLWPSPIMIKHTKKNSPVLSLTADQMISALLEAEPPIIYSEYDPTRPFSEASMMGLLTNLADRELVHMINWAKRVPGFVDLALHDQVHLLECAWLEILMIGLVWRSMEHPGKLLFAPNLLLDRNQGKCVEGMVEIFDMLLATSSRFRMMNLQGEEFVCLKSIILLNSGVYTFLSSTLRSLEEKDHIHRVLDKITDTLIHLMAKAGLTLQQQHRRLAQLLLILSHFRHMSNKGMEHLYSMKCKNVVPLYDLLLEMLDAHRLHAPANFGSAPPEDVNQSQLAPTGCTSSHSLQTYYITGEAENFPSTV

[2] = test system: oestrone- or oestradiol-stimulated uterus growth; settings: juvenile mice; known compound

relative binding affinity (oestrogen receptor): 3.6
SMILES: CC(C)(c1ccc(O)cc1)C(C)(C)c1ccc(O)cc1 [1,1,2,2-tetramethyl-1,2-bis-(4-hydroxyphenyl)-ethane]
growth of DMBA-induced mammary carcinoma [1]: inhibits the growth
antioestrogen effect: inhibition of oestrone- or oestradiol-stimulated uterus growth [2]: strong effect as antioestrogen
